Test results reported in article PMC6270420, “Antibacterial Activity of Salicylanilide 4-(Trifluoromethyl)benzoates” (Molecules, 2013).
Where two headings read alike, the source gives them in different places.

Key:
[1] = tested on: Mycobacterium tuberculosis 331/88 (H37Rv); assay: Antimycobacterial MIC micromethod, Šula's medium; type: cell-based; settings: read-out: MIC Mtb. 331/88
[2] = tested on: Mycobacterium avium 330/88; assay: Antimycobacterial MIC micromethod; type: cell-based
[3] = tested on: Mycobacterium kansasii 235/80; assay: Antimycobacterial MIC micromethod; type: cell-based; settings: read-out: MIC M. kansasii 235/80
[4] = tested on: M. kansasii 6509/96 (clinically isolated strain); assay: Antimycobacterial MIC micromethod; type: cell-based; settings: Mycobacterium kansasii, read-out: MIC M. kansasii 6509/96
[5] = tested on: Mtb. 7357/1988; assay: microbe, parasite or virus in culture; type: cell-based; settings: Mycobacterium tuberculosis, read-out: MIC Mtb. 7357/1988
[6] = tested on: Mtb. 9449/2006; assay: microbe, parasite or virus in culture; type: cell-based; settings: Mycobacterium tuberculosis, read-out: MIC Mtb. 9449/2006
[7] = tested on: Mtb. 53/2009; assay: microbe, parasite or virus in culture; type: cell-based; settings: Mycobacterium tuberculosis, read-out: MIC Mtb. 53/2009
[8] = tested on: Mtb. 234/2005; assay: microbe, parasite or virus in culture; type: cell-based; settings: Mycobacterium tuberculosis, read-out: MIC Mtb. 234/2005
[9] = tested on: Mtb. Praha 1; assay: microbe, parasite or virus in culture; type: cell-based; settings: Mycobacterium tuberculosis, read-out: MIC Mtb. Praha 1
[10] = tested on: Mtb. Praha 131 (XDR-TB); assay: microbe, parasite or virus in culture; type: cell-based; settings: Mycobacterium tuberculosis, read-out: MIC Mtb. Praha 131 (XDR-TB)
[11] = biological target: T1, mycobacterial isocitrate lyase (ICL1, Rv0467) (Mycobacterium tuberculosis, UniProt P9WKK7); assay: Isocitrate lyase inhibition assay (ICL1); type: biochemical, Mycobacterium tuberculosis H37Rv; settings: 10 μmol/L; read-out: % ICL inhibition at 10 μmol/L (± standard deviation)
T1 construct: His tag (from pET-28b(+)); made in house; host or cells: E. coli BL21(DE3), pET-28b(+) plasmid
T1 sequence (P9WKK7 1-428): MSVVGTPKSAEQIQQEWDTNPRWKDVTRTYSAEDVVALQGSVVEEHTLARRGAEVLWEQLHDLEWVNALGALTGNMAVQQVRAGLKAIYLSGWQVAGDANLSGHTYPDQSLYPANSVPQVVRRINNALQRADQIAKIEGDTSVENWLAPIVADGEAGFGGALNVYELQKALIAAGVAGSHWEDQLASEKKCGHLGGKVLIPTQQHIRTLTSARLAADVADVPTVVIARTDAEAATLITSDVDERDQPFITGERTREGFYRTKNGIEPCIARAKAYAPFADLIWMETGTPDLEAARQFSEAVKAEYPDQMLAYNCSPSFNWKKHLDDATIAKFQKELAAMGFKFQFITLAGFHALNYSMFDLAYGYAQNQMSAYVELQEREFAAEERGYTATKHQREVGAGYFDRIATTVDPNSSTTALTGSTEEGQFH

O=C(Oc1ccc(Cl)cc1C(=O)Nc1cccc(Cl)c1)c1ccc(C(F)(F)F)cc1 [1a]
2 µM: MIC ([1]; 336 h, 14 d) | MIC ([3]; 235/80, 336 h, 14 d) | MIC ([4]; 168 h, 7 d)
8 µM: MIC ([2]; 330/88, 336 h, 14 d) | MIC ([4]; 336 h, 14 d) | MIC ([4]; 504 h, 21 d)
16 µM: MIC ([2]; 330/88, 504 h, 21 d)
18 ± 1.9%: inhibition at 10 µM [11]
4 µM: MIC ([1]; 504 h, 21 d) | MIC ([3]; 235/80, 504 h, 21 d) | MIC ([5]; 336 h) | MIC ([5]; 504 h) | MIC ([6]; 336 h) | MIC ([6]; 504 h) | MIC ([7]; 336 h) | MIC ([7]; 504 h) | MIC ([8]; 336 h) | MIC ([8]; 504 h) | MIC ([9]; 336 h) | MIC ([9]; 504 h) | MIC ([10]; 336 h) | MIC ([10]; 504 h)
0.5 µM: MIC ([3]; 235/80, 168 h, 7 d)

O=C(Oc1ccc(Cl)cc1C(=O)Nc1ccc(Cl)cc1)c1ccc(C(F)(F)F)cc1 [1c]
12 ± 2.7%: inhibition at 10 µM [11]
1 µM: MIC ([3]; 235/80, 168 h, 7 d) | MIC ([4]; 168 h, 7 d)
2 µM: MIC ([1]; 336 h, 14 d) | MIC ([1]; 504 h, 21 d) | MIC ([3]; 235/80, 336 h, 14 d) | MIC ([3]; 235/80, 504 h, 21 d) | MIC ([5]; 336 h) | MIC ([5]; 504 h) | MIC ([6]; 336 h) | MIC ([6]; 504 h) | MIC ([9]; 336 h) | MIC ([9]; 504 h) | MIC ([10]; 336 h) | MIC ([10]; 504 h)
8 µM: MIC ([2]; 330/88, 504 h, 21 d)
4 µM: MIC ([2]; 330/88, 336 h, 14 d) | MIC ([4]; 336 h, 14 d) | MIC ([4]; 504 h, 21 d) | MIC ([7]; 336 h) | MIC ([7]; 504 h) | MIC ([8]; 336 h) | MIC ([8]; 504 h)

O=C(Oc1cc(Cl)ccc1C(=O)Nc1ccc(Cl)cc1)c1ccc(C(F)(F)F)cc1 [1d]
4 µM: MIC ([1]; 336 h, 14 d) | MIC ([1]; 504 h, 21 d) | MIC ([2]; 330/88, 336 h, 14 d) | MIC ([3]; 235/80, 336 h, 14 d) | MIC ([3]; 235/80, 504 h, 21 d) | MIC ([4]; 336 h, 14 d) | MIC ([4]; 504 h, 21 d) | MIC ([5]; 336 h) | MIC ([5]; 504 h) | MIC ([6]; 336 h) | MIC ([6]; 504 h) | MIC ([7]; 336 h) | MIC ([7]; 504 h) | MIC ([8]; 336 h) | MIC ([8]; 504 h) | MIC ([9]; 504 h) | MIC ([10]; 504 h)
1 µM: MIC ([3]; 235/80, 168 h, 7 d) | MIC ([4]; 168 h, 7 d)
8 µM: MIC ([2]; 330/88, 504 h, 21 d)
2 µM: MIC ([9]; 336 h) | MIC ([10]; 336 h)
12 ± 2.3%: inhibition at 10 µM [11]

O=C(Oc1ccc(Cl)cc1C(=O)Nc1ccc(Br)cc1)c1ccc(C(F)(F)F)cc1 [1i]
2 µM: MIC ([1]; 336 h, 14 d) | MIC ([1]; 504 h, 21 d) | MIC ([4]; 168 h, 7 d) | MIC ([5]; 336 h) | MIC ([6]; 336 h) | MIC ([8]; 336 h) | MIC ([8]; 504 h) | MIC ([9]; 336 h) | MIC ([9]; 504 h) | MIC ([10]; 336 h) | MIC ([10]; 504 h)
8 µM: MIC ([2]; 330/88, 336 h, 14 d) | MIC ([2]; 330/88, 504 h, 21 d) | MIC ([3]; 235/80, 504 h, 21 d) | MIC ([4]; 336 h, 14 d) | MIC ([4]; 504 h, 21 d)
1 µM: MIC ([3]; 235/80, 168 h, 7 d)
4 µM: MIC ([3]; 235/80, 336 h, 14 d) | MIC ([5]; 504 h) | MIC ([6]; 504 h) | MIC ([7]; 336 h) | MIC ([7]; 504 h)
18 ± 1.2%: inhibition at 10 µM [11]

O=C(Oc1cc(Cl)ccc1C(=O)Nc1cccc(F)c1)c1ccc(C(F)(F)F)cc1 [1l]
8 µM: MIC ([2]; 330/88, 336 h, 14 d) | MIC ([3]; 235/80, 336 h, 14 d) | MIC ([3]; 235/80, 504 h, 21 d) | MIC ([4]; 168 h, 7 d) | MIC ([4]; 336 h, 14 d)
16 µM: MIC ([2]; 330/88, 504 h, 21 d) | MIC ([4]; 504 h, 21 d)
≥ 20%: inhibition at 10 µM [11]
4 µM: MIC ([1]; 336 h, 14 d) | MIC ([1]; 504 h, 21 d) | MIC ([3]; 235/80, 168 h, 7 d)
